The source of these data is paper PMC6349167, “Inhibiting the urokinase‐type plasminogen activator receptor system recovers STZ‐induced diabetic nephropathy” (Journal of Cellular and Molecular Medicine, 2018).

The conditions of data set [1]: male, Sprague-Dawley, rat, in vivo, sc, 20 mg/kg, 24 h.
Protocol: (§1) Four weeks after diabetes induction, three control or three STZ rats were used for the pharmacokinetics (PK) and the tissue distribution study. To this aim, rats received a single dose of UPARANT succinate dissolved in PBS (vehicle) at 20 mg/kg via subcutaneous injection according to a previous study.22 To investigate a possible therapeutic role of UPARANT, the drug was administered at 1 or 8 mg/kg daily for 5 days in 15 rats for each concentration used. […] Rats were killed with 65 mg/kg pentobarbital. Blood was collected in EDTA tubes to then isolate plasma by centrifugation and kidneys were removed.
(§2) PK and UPARANT tissue distribution were as previously described.21 Briefly, for plasma PK, a volume of 0.2 mL blood was extracted at fixed time intervals (0.25, 0.5, 1, 2, 4, 6, 8, 12, 16 and 24 hours after dose) from the femoral vein. Blood was centrifuged (12 000 g for 20 minutes) and plasma was treated with 1% formic acid in methanol. Samples were stored at −80°C. The animals used for the PK study were killed at 24 hours. Kidneys and livers were dissected and processed with 1% formic acid in methanol. The concentration of UPARANT was evaluated via LC‐MS/MS.
Data set [2] in a line: in vivo. Conditions: male, Sprague-Dawley, rat, sc, 20 mg/kg.
Protocol: as §1, §2
Data set [3] can be described thus: in vivo. Conditions: male, Sprague-Dawley, rat, sc, 20 mg/kg. The source holds these as a separate data set.
Protocol: (§3) Four weeks after diabetes induction, three control or three STZ rats were used for the pharmacokinetics (PK) and the tissue distribution study. To this aim, rats received a single dose of UPARANT succinate dissolved in PBS (vehicle) at 20 mg/kg via subcutaneous injection according to a previous study.22 To investigate a possible therapeutic role of UPARANT, the drug was administered at 1 or 8 mg/kg daily for 5 days in 15 rats for each concentration used.
(§4) PK and UPARANT tissue distribution were as previously described.21 Briefly, for plasma PK, a volume of 0.2 mL blood was extracted at fixed time intervals (0.25, 0.5, 1, 2, 4, 6, 8, 12, 16 and 24 hours after dose) from the femoral vein. Blood was centrifuged (12 000 g for 20 minutes) and plasma was treated with 1% formic acid in methanol. Samples were stored at −80°C. The animals used for the PK study were killed at 24 hours. […] The concentration of UPARANT was evaluated via LC‐MS/MS.
(§5) A two phase model equation Ct = C0(e^-kelim^ t-e^-kabs^ t) with first order kinetics (absorption and elimination) was used to evaluate the kinetic parameters. Both C0 corresponding to the plasma concentration extrapolated at t=0 from the elimination phase and kelim and kabs, elimination and absorption kinetic parameters, were determined by best fit to the equation of the averaged time point concentrations. The terminal half-life t1/2 corresponding to 0.693/kelim and time tmax at the maximum plasma concentration Cmax were determined from the first derivative equal zero of the kinetic equation. The AUCinf, area under the concentration curve versus time from 0 to infinity was calculated by the integral of the kinetic equation.
The conditions of data set [4]: rat, in vivo, sc, 20 mg/kg.
Protocol: as §3, §4, §5

Like-named read-outs stand apart in the source and are kept apart here. Non-standard residues stand in square brackets, D forms with d. Residues, ends and D or L forms follow the SMILES beside them. αMeF = C[C@](N)(Cc1ccccc1)C(=O)O; Aib = CC(C)(N)C(=O)O

In the case of `CC(=O)N[C@@H](CCCNC(=N)N)C(=O)NC(C)(C)C(=O)N[C@@H](CCCNC(=N)N)C(=O)N[C@@](C)(Cc1ccccc1)C(N)=O` [UPARANT, Ac‐L‐Arg‐Aib‐L‐Arg‐L‐Cα(Me)PheNH2] (Ac-R[Aib]R[αMeF]-NH2), in data set [1], the “concentration of UPARANT in the kidney” value is 28.2 ± 4.3 µg/g and the “concentration of UPARANT in the liver” value turned out to be 20.4 ± 7.5 µg/g. The molecule also yielded a tissue level at time at 24 h in data set [2] (concentration of UPARANT in the kidney) of 45900 ± 3600 ng/g. The molecule further yielded a tissue level at time at 24 h in data set [2] (concentration of UPARANT in the liver) of 21100 ± 2400 ng/g. Besides, the half-life in data set [3] is 2.2 h. This molecule also displayed an AUC(0-inf) in data set [3] (AUCinf) of 15900 ng·h/mL. The peak concentration (Cmax) in data set [3] (Cmax) was 2600 ng/mL. The same molecule displayed a tmax in data set [3] (tmax) of 2.3 h. In data set [4] (male, Sprague-Dawley), this molecule displayed an AUCinf of 16100 ng·h/mL, a Cmax of 2300 ng/mL and a tmax of 2.2 h. In data set [4], this molecule registered a kabs of 0.6 ± 0.2 h⁻¹ and a t1/2 of 2.2 h.
